Test results taken from patent US20210330611A1, “THERAPY FOR NEUROLOGICAL DISEASES/DISORDERS” (priority 2020, published 2021).
Counter-ions that a name gives are not always drawn. Like-named read-outs stand apart in the source and are kept apart here.

How the values were obtained:
[1] = tested on: fibrin- and LPS-induced microglia activation; test: cells; assay type: cell-based, rat
[2] = tested on: primary rat microglia;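 for Fibrin % cell toxicity: share of dead cells sized under 150 µm2 at 10 µM in fibrin-stimulated microglia HTS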
[3] = tested on: primary rat microglia; remark: listed apart in the source;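 for Fibrin % cell toxicity: share of dead cells sized under 150 µm2 at 10 µM in fibrin-stimulated microglia HTS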
[4] = tested on: fibrin-induced microglia activation; test: Image-based assay of fibrin-induced microglia activation (HTS and dose response); assay type: cell-based, rat; conditions: for inhibition at 10 µM: Rattus norvegicus, Microglia, read-out: Fibrin % inhibition
[5] = tested on: LPS-induced microglia activation; test: Image-based assay of LPS-induced microglia activation (HTS and dose response); assay type: cell-based, rat; conditions: for inhibition at 10 µM: Rattus norvegicus, Microglia, read-out: LPS % inhibition
[6] = quadrant by fibrin and LPS inhibition, HTS at 10 μM
[7] = primary microglia HTS, fibrin stimulation, compounds at 10 μM
[8] = primary microglia HTS, LPS stimulation, compounds at 10 μM
[9] = primary microglia HTS, fibrin stimulation, increased cell size (>800 μm^2) as marker of activation
[10] = 48 h, primary microglia HTS, LPS stimulation, increased cell size (>800 μm^2) as marker of activation

SMILES	Quadrant (FIG. 5b) [1]	LPS % cell toxicity [2]	Fibrin % cell toxicity [3]	Quadrant (FIG. 5b) [1, 6]	LPS % cell toxicity ([2]; rat)	Fibrin % cell toxicity ([3]; rat)	inhibition at 10 µM [4, 7]	inhibition at 10 µM [5, 8]	also measured
O=CCc1ccc(-c2ccccc2)cc1	Q4	0%	0%						Fibrin % inhibition ([4]; 10 µM): −26%; LPS % inhibition ([5]; 10 µM): 7%
CN(C)CCCN1c2ccccc2Sc2ccc(Cl)cc21.Cl	Q4	1%	2%						Fibrin % inhibition ([4]; 10 µM): 9%; LPS % inhibition ([5]; 10 µM): 25%
C#CCN(C)CCCOc1ccc(Cl)cc1Cl.Cl	Q4	0%	0%						Fibrin % inhibition ([4]; 10 µM): −28%; LPS % inhibition ([5]; 10 µM): 6%
O=P1(N(CCCl)CCCl)NCCCO1 (centres unmarked)	Q4	0%	0%						Fibrin % inhibition ([4]; 10 µM): −15%; LPS % inhibition ([5]; 10 µM): 12%
N[C@@H]1C[C@H]1c1ccccc1 (racemic) [Tranylcypromine]	Q4	0%	1%						Fibrin % inhibition ([4]; 10 µM): 5%; LPS % inhibition ([5]; 10 µM): −5%
OCCc1ccccc1 [2-Phenyl-Ethanol]				Q4	0%	1%	-6%	15%	
O=c1ccc2ccccc2o1 [2H-1-BENZOPYRAN-2-ONE]	Q4	0%	0%						Fibrin % inhibition ([4]; 10 µM): −35%; LPS % inhibition ([5]; 10 µM): 13%
Nc1ncn([C@@H]2O[C@H](CO)[C@@H](O)[C@H]2O)c(=O)n1 [5-azacytidine, Azacitidine]		0%	1%	Q4					Fibrin % inhibition [4, 7]: 9%; LPS % inhibition [5, 8]: −7%
C[C@H]1O[C@@H](n2cc(F)c(=O)[nH]c2=O)[C@H](O)[C@@H]1O [5-fluoro-5′-deoxyuridine, Doxifluridine]		0%	1%	Q4					Fibrin % inhibition [4, 7]: −27%; LPS % inhibition [5, 8]: 9%
Cc1cc(=O)oc2cc(O)ccc12 [7-hydroxy-4-methyl-2H-chromen-2-one]				Q4	0%	0%	12%	4%	
CCCC(=O)Nc1ccc(OCC(O)CNC(C)C)c(C(C)=O)c1 (centres unmarked) [Acebutolol]				Q4	0%	1%	-11%	19%	
CC(=O)Nc1ccc(S(=O)(=O)c2ccc(NC(C)=O)cc2)cc1 [Acedapsone]	Q4				0%	0%			inhibition at 10 µM [4]: 0%; inhibition at 10 µM [5]: 4%
CC1=CC(=O)NS(=O)(=O)O1 [Acesulfame Potassium]	Q4				0%	0%			inhibition at 10 µM [4]: -3%; inhibition at 10 µM [5]: 16%
CC(=O)Nc1ccc(O)cc1 [Acetaminophen]					0%	0%			inhibition at 10 µM [4]: 14%; inhibition at 10 µM [5]: 22%
CC(=O)Nc1ccccc1 [Acetanilide]	Q4				0%	0%			inhibition at 10 µM [4]: -31%; inhibition at 10 µM [5]: 9%
CC(=O)Nc1nnc(S(N)(=O)=O)s1 [Acetazolamide]	Q4				1%	0%			inhibition at 10 µM [4]: -12%; inhibition at 10 µM [5]: 4%

SMILES	Quadrant (FIG. 5b) [1]	LPS % cell toxicity [2]	Fibrin % cell toxicity [3]	Quadrant (FIG. 5b) [1, 6]	LPS % cell toxicity ([2]; rat)	Fibrin % cell toxicity ([3]; rat)	inhibition at 10 µM [4, 7]	inhibition at 10 µM [5, 8]	also measured
CC(=O)c1ccc(S(=O)(=O)NC(=O)NC2CCCCC2)cc1 [Acetohexamide]				Q4	0%	1%	12%	14%	
CC(=O)OCC[N+](C)(C)C [Acetylcholine]				Q4	0%	0%	-39%	9%	
CC[C@H]1[C@@H]2C[C@H]3[C@@H]4N(C)c5ccccc5[C@]45C[C@@H]([C@H]2[C@H]5O)N3[C@@H]1O [Ajmaline]				Q4	0%	1%	-6%	13%	
Oc1ncnc2[nH]ncc12 [Allopurinol]				Q4	0%	1%	-17%	16%	
Cc1c(C)c2c(c(C)c1O)CCC(C)(CCCC(C)CCCC(C)CCCC(C)C)O2 (stereo not drawn) [Alpha-tochopherol]		0%	0%	Q4					Fibrin % inhibition [4, 7]: 18%; LPS % inhibition [5, 8]: 21%
C=CCc1ccccc1OCC(O)CNC(C)C (centres unmarked) [Alprenolol Hydrochloride, Alprenolol]		1%	0%	Q4					Fibrin % inhibition [4, 7]: 1%; LPS % inhibition [5, 8]: 13%
O=C(O)CN1C(=O)c2cccc3cccc(c23)C1=O [Alrestatin]	Q4				0%	1%			inhibition at 10 µM [4]: 11%; inhibition at 10 µM [5]: 12%
NCCCNCCSP(=O)(O)O [Amifostine]				Q4	0%	0%	-38%	15%	
N=C(N)NC(=O)c1nc(Cl)c(N)nc1N [Amiloride]				Q4	0%	1%	20%	7%	
NCCCCCC(=O)O [Aminocaproic Acid]	Q4				0%	1%			inhibition at 10 µM [4]: 5%; inhibition at 10 µM [5]: 7%
NCC(=O)CCC(=O)O [Aminolevulinic acid]				Q4	0%	1%	-4%	10%	
CN(C)CCC=C1c2ccccc2COc2ccccc21 [Doxepin]	Q4				0%	1%			LPS % inhibition ([5]; 10 µM): 13%; inhibition at 10 µM [5]: 16%
CN(C)CCCN1c2ccccc2CCc2ccccc21 [Imipramine]					1%	0%			inhibition at 10 µM [4, 9]: -4%; inhibition at 10 µM [5, 10]: 60%
N[C@@H](Cc1cc(I)c(Oc2ccc(O)c(I)c2)c(I)c1)C(=O)O [Liothyronine]	Q4				1%	1%			inhibition at 10 µM ([5]; 48 h): 21%
COc1cc2nc(N3CCN(C(=O)c4ccco4)CC3)nc(N)c2cc1OC [Prazosin]					77%	3%			inhibition at 10 µM [4, 9]: 43%; inhibition at 10 µM [5, 10]: 118%
Clc1ccccc1CN1CCc2sccc2C1 [Ticlopidine]					0%	1%			inhibition at 10 µM [4]: -13%; inhibition at 10 µM [5]: 22%
